Experiments:
[1] = High-humidity test (stability study); type: physicochemical; settings: for Purity (%): HPLC
Procedure: (§1) Place an appropriate amount of the test sample from one batch in a flat weighing bottle, spreading it into a thin layer ≤5 mm thick. Store at 25° C. and 90%±5% relative humidity (RH) for 30 days. Collect samples at 0, 5, 10, and 30 days for analysis according to the key stability test items. Observe any color changes and determine purity by HPLC.

[2] = Light-exposure test (stability study); type: physicochemical; settings: visible 4500 lx±500 lx and UV, 30 days; for Purity (%): HPLC
Excerpt: (§2) Expose the sample to visible light (4500 lx±500 lx) and UV light (energy ≥0.7 W·h/m^2) for 30 days. Collect samples at 0, 5, 10, 15, and 30 days for analysis according to the key stability test items. Observe any color changes and determine purity by HPLC.

[3] = Hygroscopicity test by dynamic vapor sorption (DVS); type: physicochemical; settings: for Weight Gain at 60% RH (%) / Weight Gain at 80% RH (%) / Weight Gain at 95% RH (%): DVS, 25° C.; for resistance to deliquescence: high-humidity conditions
Procedure: The hygroscopicity of the present invention was determined using a DVS INT-Std dynamic vapor and gas sorption analyzer from Surface Measurement Systems Ltd. (UK) with the following parameters: humidity test range: 0%-95%, gas flow: 200 mL/min, temperature: 25° C., test points: one measurement point every 5% humidity increase.
An appropriate amount of the test sample was taken, and its hygroscopicity was measured using a dynamic vapor sorption (DVS) instrument. The classification criteria for hygroscopicity characteristics and moisture absorption weight gain (as per Appendix 9103 “Guidelines for Hygroscopicity Testing of Drugs” from the Chinese Pharmacopoeia 2020 Edition, test conditions: 25° C.±1° C., 80%±2% relative humidity (RH)) are described in Table 2 below: […]

[4] = Pharmacokinetics test in Beagle dogs, oral capsules; type: in vivo; settings: dog, plasma, male Beagle dogs, 5 mg/kg
Procedure: Male Beagle dogs of 8-12 kg were divided into 3 groups, 3 dogs in each group, and capsules containing test samples were orally administered at a dose of 5 mg/kg, and blood was collected at time points of 0.25, 0.5, 1.0, 2.0, 4.0, 6.0, 8.0 and 24 h. Standard curve was plotted based on concentrations of the samples in a suitable range, the concentration of the test sample in the plasma sample was measured and quantified by AB SCIEX API4000-type LC-MS/MS at MRM mode. Pharmacokinetic parameters were calculated according to drug concentration-time curve using a noncompartmental method by WinNonLin 6.3 software.

[5] = Stability studies, overall conclusion; type: physicochemical
Procedure: Example 5 Stability Studies
as §1, with “sample” for “sample from one batch”, “60° C.±2°” for “25°”, “C.” for “C. and 90%±5% relative humidity (RH)”
as §1, §2

Solubility (HPLC) = type: physicochemical
Procedure: The solubility of the present invention was determined using an Agilent 1200 High Performance Liquid Chromatograph DAD/VWD detector with an Agilent XDB-C18 model (4.6×50 mm, 5 μm). Detection wavelength of 266 nm, flow rate of 1.0 mL/min, the column temperature of 35° C., mobile phase A: acetonitrile—0.01 M ammonium acetate=10:90 (V:V) analysis methods: acetonitrile-mobile phase A=70:30 (V:V), running time: 10 minutes.

[6] = Crystal form conversion in solvents; type: physicochemical; settings: solvents such as ethanol
[7] = High-temperature test (stability study); type: physicochemical
Procedure: (1) High-Temperature Test:
as §1, with “sample” for “sample from one batch”, “60° C.±2°” for “25°”, “C.” for “C. and 90%±5% relative humidity (RH)”

[8] = 0 day (start of stability tests)
[9] = High-Humidity, 25° C., 90%±5% RH, 30 days

Outward [1, 8]	Purity (%) [1, 8] [%]	Outward [1, 9]	Purity (%) [1, 9] [%]	Outward [2]	Purity (%) [2] [%]	Weight Gain at 60% RH (%) [3] [%]	Weight Gain at 80% RH (%) [3] [%]	Weight Gain at 95% RH (%) [3] [%]	resistance to deliquescence [3]	AUC(0-t) [4] [ng·h/mL]	Cmax [4] [ng/mL]	Tmax [4] [h]	crystal structure stability (polymorphic transition) [5]	stability under various storage conditions [5]	solubility (in words) (Solubility (HPLC))	crystal form conversion in solvents [6]	polymorphic transformation under high-temperature conditions [7]	SMILES
Off-white	99.77	Off-white	99.80	Off-white	99.75	0.15	0.20	0.26	highly resistant to deliquescence	12100	1140	10	less prone to polymorphic transition	excellent stability	good solubility	–	–	COC(=O)Nc1c(N)nc(-c2nn(Cc3ccccc3F)c3c(F)cccc23)nc1N [Crystal Form XI, methyl (4,6-diamino-2-(7-fluoro-1-(2-fluorobenzyl)-1H-indazol-3-yl)pyrimidin-5-yl)carbamate]
–	–	–	–	–	–	–	–	–	–	–	–	–	–	–	–	exhibit crystal form conversion	–	COC(=O)Nc1c(N)nc(-c2nn(Cc3ccccc3F)c3c(F)cccc23)nc1N [Crystal Form I, methyl (4,6-diamino-2-(7-fluoro-1-(2-fluorobenzyl)-1H-indazol-3-yl)pyrimidin-5-yl)carbamate]
Off-white	99.52	Off-white	99.51	Pale yellow	99.36	–	–	–	–	–	–	–	–	–	–	exhibit crystal form conversion	undergoes polymorphic transformation	COC(=O)Nc1c(N)nc(-c2nn(Cc3ccccc3F)c3c(F)cccc23)nc1N [Crystal Form V, methyl (4,6-diamino-2-(7-fluoro-1-(2-fluorobenzyl)-1H-indazol-3-yl)pyrimidin-5-yl)carbamate]
Pale yellow	99.76	Pale yellow	99.78	Pale yellow	99.75	0.09	0.14	0.25	highly resistant to deliquescence	–	–	–	–	excellent stability	–	–	–	COC(=O)Nc1c(N)nc(-c2nn(Cc3ccccc3F)c3c(F)cccc23)nc1N [Crystal Form III, methyl (4,6-diamino-2-(7-fluoro-1-(2-fluorobenzyl)-1H-indazol-3-yl)pyrimidin-5-yl)carbamate]

From US20260207591A1, “CRYSTAL FORM OF FLUORINE-SUBSTITUTED INDAZOLE COMPOUND AND USE THEREOF” (SUNSHINE LAKE PHARMA CO., LTD., priority 2022, published 2026)
